{"source": "patent US5169852A", "about": "“Method of suppressing appetite by administration of tetrahydro-beta-carboline derivatives” (priority 1990, dated 1992)", "key": {"[1]": {"assay": "Reduction of food intake in fasted rats, intraperitoneal (IC50 from dose-response curve)", "type": "in vivo, rat", "details": "ip", "source_text": "The measured food intake was plotted as a function of the natural logarithm of the drug concentration (ln(Dose)) given to the animal for each of the compounds listed above. A dose response curve of the functional form: Intake =α+(1-α)/[1+exp(β- ln(Dose))]was fit to each of the data sets using the NONLIN feature of the Systat™ statistical analysis software package for the Macintosh™ (Systat, Evanston, Il)."}, "[2]": {"assay": "Partial appetite suppression: food intake over one hour vs dose (FIG. 5)", "type": "in vivo", "details": "rat", "description": "Adult male rats weighing between 250 and 300 g were acclimated to laboratory conditions for a period of 4-5 days, during which they were allowed unrestricted access to food (Ralston-Purina #5001M) and water. All animals were housed in individual cages. The animal facility was maintained on a 12:12 hr light-dark schedule at 22° C.\nFasted animals were sorted into groups of 10-12 each by weight and baseline food intake. Each was then given saline containing 0-32 mg/Kg of a compound of the invention (or THBC) by intraperitoneal injection. After 20 minutes, animals were allowed access to food and water. Cumulative food intake was measured at 1 hour post-injection.\nReduction in food intake over one hour was measured against the dose per unit body weight for THBC and compound 14. The results are shown in FIG. 5A, which compares compound 14 with THBC."}, "benzodiazepine receptors": {"tested_on": "benzodiazepine receptors", "details": "Skolnick; Robertson; cited from earlier work"}, "[3]": {"tested_on": "brain spiperone binding sites", "details": "cited from earlier work"}, "5-HT uptake": {"tested_on": "5-HT uptake", "details": "brain synaptosomes; cited from earlier work"}, "[4]": {"details": "parenteral, rats; cited from earlier work"}, "[5]": {"details": "cited from earlier work"}, "[6]": {"tested_on": "5-HT oxidative deamination", "details": "cited from earlier work"}, "5 HT efflux": {"tested_on": "5 HT efflux", "details": "brain slices; cited from earlier work"}, "[7]": {"details": "cited from earlier work", "remark": "listed apart in the source"}, "[8]": {"tested_on": "brain tryptamine binding sites", "details": "cited from earlier work"}, "[9]": {"details": "rats; cited from earlier work"}, "[10]": {"tested_on": "brain 5-hydroxytryptamine (5-HT) binding sites", "details": "cited from earlier work"}, "[11]": {"tested_on": "brain imipramine binding sites", "details": "cited from earlier work"}, "[12]": {"details": "systemic, rodents; cited from earlier work"}, "[13]": {"details": "cited from earlier work; for effect on feeding (hyperphagic / anorectic): S. Cooper"}, "[14]": {"details": "human, in vivo; cited from earlier work"}, "[15]": {"details": "rat, intraperitoneal, 1 hour food intake, Table 2, read-out: Activity LOG (IC50), reduction of food intake (converted)"}, "[16]": {"details": "rat, intraperitoneal, 1 hour food intake, Table 3, read-out: Log (1/IC50) Measured (converted)"}, "[17]": {"details": "Rattus norvegicus, 1 h, read-out: Activity LOG (IC50), reduction of food intake"}, "[18]": {"details": "Rattus norvegicus, 1 h, read-out: Log (1/IC50) Measured"}}, "note": "“Also recorded” adds a separate entry of the source. Counter-ions that a name gives are not always drawn. Like-named read-outs stand apart in the source and are kept apart here."}
{"compound": "O=C(O)C1Cc2c([nH]c3ccccc23)CN1", "note": "(racemic) [Compound 14, (±) 3-carboxyl-1,2,3,4-tetrahydro-β-carboline]", "values": [{"measurement": "ED50", "setting": "[1]; [15]", "result": 0.0331, "unit": "µmol/kg"}, {"measurement": "ED50", "setting": "[1]; [16]", "result": 30.2, "unit": "µmol/kg"}, {"measurement": "feeding depression / dose-response behavior", "setting": "[2]", "result": "will not depress feeding behavior over a comparatively large feeding range; also recorded: moderate feeding depression over a broad dosage range"}]}
{"compound": "COC(=O)C1Cc2c([nH]c3ccccc23)CN1", "note": "(stereo not drawn) [3-carbomethoxy-1,2,3,4-tetrahydro-β-carboline]", "values": [{"measurement": "binding affinity to benzodiazepine receptors", "setting": "benzodiazepine receptors", "result": "very low affinity"}]}
{"compound": "c1ccc2c3c([nH]c2c1)CNCC3", "note": "[Compound 1, 1,2,3,4-tetrahydro-β-carboline]", "values": [{"measurement": "ED50", "setting": "[1]; [17]", "result": 0.0145, "unit": "µmol/kg"}, {"measurement": "ED50", "setting": "[1]; [18]", "result": 69.2, "unit": "µmol/kg"}, {"measurement": "competition for brain spiperone binding sites", "setting": "[3]", "result": "low affinity"}, {"measurement": "inhibition of 5-HT uptake", "setting": "5-HT uptake", "result": "weakly inhibits"}, {"measurement": "dose eliciting significant hypothermia", "setting": "[4]", "result": "≥ 6.25", "unit": "mg/kg"}, {"measurement": "deaths", "setting": "[5]; 49 mg/Kg/day or greater", "result": "6 out of the 24"}, {"measurement": "treatment day by which food consumption returns to normal (tolerance)", "setting": "[5]; daily oral, in excess of 49 mg/Kg", "result": "twelfth"}, {"measurement": "appetite, smaller daily doses", "setting": "[5]; daily oral, less than 30 mg/Kg", "result": "do not significantly alter appetite"}, {"measurement": "food intake, daily oral administration", "setting": "[5]; in excess of 49 mg/Kg daily, after two consecutive days", "result": "significant reductions in food intake"}, {"measurement": "inhibition of 5-HT oxidative deamination", "setting": "[6]", "result": "weakly inhibits"}, {"measurement": "depolarization-induced 5 HT efflux", "setting": "5 HT efflux", "result": "enhances"}, {"measurement": "behavioral syndrome at high doses", "setting": "[7]; high doses", "result": "hyperactivity, forepaw treating, body weaving, and circling"}, {"measurement": "behavioral effects", "setting": "[7]; parenteral", "result": "suppresses locomotion, exploratory activity, and conflict behavior, impairs performance on operantly conditioned learning and memory tasks, reduces seizure susceptibility, prolongs barbiturate sedation, and antagonizes specific drug induced stereotypic behavior"}, {"measurement": "competition for brain tryptamine binding sites", "setting": "[8]", "result": "low affinity"}, {"measurement": "feeding depression / dose-response behavior", "setting": "[2]", "result": "little feeding depression at low dosage, but relatively complete feeding depression at higher dosage"}, {"measurement": "behavioral effects, intraventricular", "setting": "[9]", "result": "reduce motor activity, induce apparent anxiety, and increase voluntary ethanol consumption"}, {"measurement": "competition for brain 5-HT binding sites", "setting": "[10]", "result": "low affinity"}, {"measurement": "competition for brain imipramine binding sites", "setting": "[11]", "result": "low affinity"}, {"measurement": "plasma corticosterone", "setting": "[12]", "result": "elevated"}, {"measurement": "plasma prolactin levels", "setting": "[12]", "result": "dose-dependent elevation"}, {"measurement": "serum luteinizing hormone levels", "setting": "[12]", "result": "decreased"}]}
{"compound": "COc1ccc2[nH]c3c(c2c1)CCNC3", "note": "[Compound 2, 6-methoxy-1,2,3,4-tetrahydro-β-carboline]", "values": [{"measurement": "ED50", "setting": "[1]; [17]", "result": 0.0162, "unit": "µmol/kg"}, {"measurement": "ED50", "setting": "[1]; [18]", "result": 61.7, "unit": "µmol/kg"}]}
{"compound": "Fc1ccc2[nH]c3c(c2c1)CCNC3", "note": "[Compound 4, 6-fluoro-1,2,3,4 tetrahydro-β-carboline hydrochloride]", "values": [{"measurement": "ED50", "setting": "[1]; [17]", "result": 0.0257, "unit": "µmol/kg"}, {"measurement": "ED50", "setting": "[1]; [18]", "result": 38.9, "unit": "µmol/kg"}]}
{"compound": "Fc1ccc2c3c([nH]c2c1)CNCC3", "note": "[Compound 5, 7-fluoro-1,2,3,4-tetrahydro-β-carboline hydrochloride]", "values": [{"measurement": "ED50", "setting": "[1]; [17]", "result": 0.0214, "unit": "µmol/kg"}, {"measurement": "ED50", "setting": "[1]; [18]", "result": 46.8, "unit": "µmol/kg"}]}
{"compound": "CC1NCCc2c1[nH]c1ccccc21", "note": "(stereo not shown) [Compound 7]", "values": [{"measurement": "ED50", "setting": "[1]; [18]", "result": 100, "unit": "µmol/kg"}]}
{"compound": "Clc1ccc2[nH]c3c(c2c1)CCNC3", "note": "[Compound 8, 6-chloro-1,2,3,4-tetrahydro-β-carboline hydrochloride]", "values": [{"measurement": "ED50", "setting": "[1]; [17]", "result": 0.0347, "unit": "µmol/kg"}, {"measurement": "ED50", "setting": "[1]; [18]", "result": 28.8, "unit": "µmol/kg"}]}
{"compound": "Cc1cccc2c3c([nH]c12)CNCC3", "note": "[Compound 10, 8-methyl-1,2,3,4-tetrahydro-β-carboline hydrochloride]", "values": [{"measurement": "ED50", "setting": "[1]; [15]", "result": 0.0162, "unit": "µmol/kg"}, {"measurement": "ED50", "setting": "[1]; [16]", "result": 61.7, "unit": "µmol/kg"}]}
{"compound": "Cc1ccc2[nH]c3c(c2c1)CCNC3", "note": "[Compound 12]", "values": [{"measurement": "ED50", "setting": "[1]; [16]", "result": 30.9, "unit": "µmol/kg"}]}
{"compound": "CCC1Cc2c([nH]c3ccccc23)CN1", "note": "(stereo not shown) [Compound 13]", "values": [{"measurement": "ED50", "setting": "[1]; [16]", "result": 77.6, "unit": "µmol/kg"}]}
{"compound": "O=C(O)C1Cc2c([nH]c3ccc(O)cc23)CN1", "note": "(stereo not shown) [Compound 15]", "values": [{"measurement": "ED50", "setting": "[1]; [16]", "result": 91.2, "unit": "µmol/kg"}]}
{"compound": "CC(=O)N1CCc2c([nH]c3ccccc23)C1", "note": "[Compound 16, 2-acetyl-1,2,3,4-tetrahydro-β-carboline]", "values": [{"measurement": "ED50", "setting": "[1]; [15]", "result": 0.0162, "unit": "µmol/kg"}, {"measurement": "ED50", "setting": "[1]; [16]", "result": 61.7, "unit": "µmol/kg"}, {"measurement": "feeding depression / dose-response behavior", "setting": "[2]", "result": "The same behavior was observed"}]}
{"compound": "Cc1cccc2[nH]c3c(c12)CCNC3", "note": "[Compound 17]", "values": [{"measurement": "ED50", "setting": "[1]; [16]", "result": 30.2, "unit": "µmol/kg"}]}
{"compound": "O=Cn1c2c(c3ccccc31)CCNC2", "note": "[Compound 18]", "values": [{"measurement": "ED50", "setting": "[1]; [16]", "result": 91.2, "unit": "µmol/kg"}]}
{"compound": "c1ccc(Cn2c3c(c4ccccc42)CCNC3)cc1", "note": "[Compound 19, 9 benzyl-1,2,3,4-tetrahydro-β-carboline hydro-chloride]", "values": [{"measurement": "ED50", "setting": "[1]; [15]", "result": 0.0447, "unit": "µmol/kg"}, {"measurement": "ED50", "setting": "[1]; [16]", "result": 22.4, "unit": "µmol/kg"}]}
{"compound": "CCn1c2c(c3ccccc31)CCNC2", "note": "[Compound 20, 9-ethyl-1,2,3,4-tetrahydro-β-carboline hydrochloride]", "values": [{"measurement": "ED50", "setting": "[1]; [15]", "result": 0.0309, "unit": "µmol/kg"}, {"measurement": "ED50", "setting": "[1]; [16]", "result": 32.4, "unit": "µmol/kg"}]}
{"compound": "CCCCCn1c2c(c3cc(C)ccc31)CCNC2", "note": "[Compound 21, 6-Methyl-9-(n-pentyl)-1,2,3,4-tetrahydro-β-carboline hydrochloride]", "values": [{"measurement": "ED50", "setting": "[1]; [15]", "result": 0.0589, "unit": "µmol/kg"}, {"measurement": "ED50", "setting": "[1]; [16]", "result": 17, "unit": "µmol/kg"}]}
{"compound": "CCCCCn1c2c(c3ccccc31)CCNC2", "note": "[Compound 23, 9-(n-pentyl)-1,2,3,4-tetrahydro-β-carboline hydrochloride]", "values": [{"measurement": "ED50", "setting": "[1]; [15]", "result": 0.055, "unit": "µmol/kg"}, {"measurement": "ED50", "setting": "[1]; [16]", "result": 18.2, "unit": "µmol/kg"}]}
{"compound": "CC(=O)N1CCc2c(n(Cc3ccccc3)c3ccccc23)C1", "note": "[Compound 27, 2 acetyl-9 benzyl-1,2,3,4-tetrahydro-β-carboline]", "values": [{"measurement": "ED50", "setting": "[1]; [15]", "result": 0.0339, "unit": "µmol/kg"}, {"measurement": "ED50", "setting": "[1]; [16]", "result": 29.5, "unit": "µmol/kg"}]}
{"compound": "CCOC(=O)c1ncc2[nH]c3ccc(OCc4ccccc4)cc3c2c1COC", "note": "[ethyl 6-benzyloxy-4-meth-oxymethyl-β-carboline-3-carboxylate]", "values": [{"measurement": "effect on feeding (hyperphagic / anorectic)", "setting": "[13]", "result": "hyperphagic"}]}
{"compound": "CCOC(=O)c1ncc2[nH]c3cccc(OCc4ccccc4)c3c2c1COC", "note": "[ethyl-5-benzyloxy-4-methoxymethyl β-carboline-3-carboxylate]", "values": [{"measurement": "effect on feeding (hyperphagic / anorectic)", "setting": "[13]", "result": "hyperphagic"}]}
{"compound": "CCNC(C)Cc1cccc(C(F)(F)F)c1", "note": "(stereo not shown) [fenfluramine]", "values": [{"measurement": "clinical efficacy", "setting": "[14]", "result": "inadequate clinical efficacy"}, {"measurement": "patient complaints (side effects)", "setting": "[14]", "result": "drowsiness and headache"}]}
{"compound": "CNC(=O)c1cc2c(cn1)[nH]c1ccccc12", "note": "[β-carboline-3-carboxylic acid methyl amide]", "values": [{"measurement": "food consumption by partially sated rats", "setting": "[13]; 10.0 mg/Kg, intraperitoneal", "result": "30 % of control"}, {"measurement": "effect on feeding (hyperphagic / anorectic)", "setting": "[13]", "result": "anorectic"}]}
{"compound": "ethyl -isopropoxy-4-methyl-β-carboline-3-carboxylate", "values": [{"measurement": "effect on feeding (hyperphagic / anorectic)", "setting": "[13]", "result": "hyperphagic"}]}
